# From US12029728B2, “Small molecules with anti-protozoan activity” (New Mexico Tech University Research Park Corporation, priority 2018, dated 2024)
# Assays:
# [1] = test system: T. cruzi amastigotes and trypomastigotes; test: Viability of tdTomato T. cruzi amastigotes and trypomastigotes, fluorescence; format: cell-based, Trypanosoma cruzi; details: 25 μM, 48 hours at 37° C.
# Experimental: The viability of a mixture of T. cruzi amastigotes and trypomastigotes after exposure to 25 μM of the compounds of the disclosure was determined. 2×10^5 parasites/100 μL were plated in 96-well plates. Parasites expressing tdTomato were used to assess parasite viability using fluorescence measurements. Parasites were incubated with 25 μM of the compounds of the disclosure for 48 hours at 37° C. After the incubation period, the viability of amastigotes and trypomastigotes was assessed by measuring the fluorescence intensity at 510 nm-590 nm using a Tecan plate reader, where the presence of fluorescence indicated viable amastigotes/trypomastigotes.
# T. cruzi epimastigotes [2] = test: T. cruzi epimastigote toxicity, visually assessed; format: cell-based, Trypanosoma cruzi; details: 48 hours at 30° C.; for killing at 100 µM: Trypanosoma cruzi, epimastigotes, read-out: T. cruzi death @ 100 μM
# Experimental: A 1:20 working dilution of T. cruzi epimastigotes was prepared in LIT1029 medium from a saturated (˜4×10^6 cells/mL) culture. 100 μL of the 1:20 working dilution was plated, and the epimastigotes were incubated with a compound of the disclosure at varying concentrations for 48 hours at 30° C. Following T. cruzi epimastigote treatment with a compound of the disclosure, the toxicity of compounds towards T. cruzi epimastigotes was visually assessed.
# [3] = test system: T. cruzi-infected ARPE cells; test: Treatment of T. cruzi-infected ARPE cells, imaging; format: cell-based, Trypanosoma cruzi
# Experimental: Four confocal dishes were prepared with 10,000 ARPE cells, which were adhered overnight at 37° C. The four dishes were ARPE control cells, non-infected but 5 μM Compound 2-treated cells, non-treated but infected cells, and infected cells treated with 5 μM Compound 2. For the infected dishes, ARPE media was removed and replaced with 2 mL of infectious amastigotes and trypomastigotes from the ARPE passaged plate. The dishes were then incubated for 2 hours at 37° C. The treated dishes were incubated with 5 μM Compound 2 for 5 days at 37° C., while untreated dishes were incubated in fresh media without Compound 2 for 5 days at 37° C. After the 5-day period, cells were washed 3 times in ARPE media and fixed with 1 mL 4% paraformaldehyde. Cells were visualized using an EVOS cell imaging system. Amastigotes appeared as small, dense, and mostly birefringent in images.
# The experiment above was repeated using 1 μM Compound 2.
# Four confocal dishes with 10,000 ARPE cells were prepared and adhered overnight at 37° C. The four dishes were: 1) ARPE control cells; 2) non-infected cells treated with 1 μM Compound 2; 3) untreated infected cells; and 4) T. cruzi-infected cells treated with 1 μM Compound 2. For the infected dishes, ARPE media was removed and replaced with 2 mL of infectious amastigotes and trypomastigotes expressing tdTomato (from ARPE passaged plate). The dishes were then incubated overnight for 7 days at 37° C. The untreated dishes were incubated in fresh media without Compound 2 for 7 days at 37° C. After the 7-day incubation period, cells were washed 3 times in ARPE media and fixed with 1 mL 4% paraformaldehyde. tdTomato fluorescence, which is indicative of viable T. cruzi, was then observed via fluorescence microscopy.
# ARPE cells were plated in confocal dishes (20,000 cells per dish) and incubated overnight at 37° C. Cells were infected with T. cruzi by incubating cells with T. cruzi amastigotes and trypomastigotes expressing tdTomato (˜2×10^5 cells in total) for 24 hours at 37° C. Uninfected cells served as controls. Following the T. cruzi incubation period, extracellular parasites were removed, and the medium was replaced with DMEM/F12 culture media with or without 1 μM Compound 2. The cells were incubated further for 24 hours at 37° C. Cells were then treated two more times with fresh DMEM/F12 culture media with or without 1 μM Compound 2 and incubated for 24 hours at 37° C. Following fixation of cells in 4% paraformaldehyde, plates were imaged for tdTomato fluorescence, which is indicative of viable T. cruzi, such that the effects of repeated Compound 2 treatment could be compared to a single treatment with Compound 2.
# ARPE cells were plated in confocal dishes (20,000 cells per dish) and incubated overnight at 37° C. Cells were infected with T. cruzi by incubating cells with T. cruzi amastigotes and trypomastigotes expressing tdTomato (˜2×10^5 cells in total) for 24 hours at 37° C. before washing dishes three times with DMEM/F12 culture media. Uninfected plates served as controls. The dishes were then treated with 2 μM Compound 2 or left untreated as a control and incubated further for 5 days at 37° C. The treated dish received a single treatment of Compound 2 on day 1. Dishes were washed twice with DMEM/F12 media and fixed in 4% paraformaldehyde before being imaged using confocal microscopy. […] The other Compound 2 dishes that were not incubated with T. cruzi a second time were used as controls. Following fixation of cells in 4% paraformaldehyde, tdTomato fluorescence of the cells was assessed using confocal microscopy.
# ARPE cells were plated in confocal dishes (20,000 cells per dish) and incubated overnight at 37° C. Dishes were incubated with T. cruzi amastigotes and trypomastigotes expressing tdTomato (˜2×10^5 cells) for 48 hours at 37° C. Untreated cells served as controls. Cells were then washed 3 times with cell medium, treated with 5 μM Compound 2 or left untreated as a control and incubated further for 2 days at 37° C. […]
# T. cruzi trypomastigotes = test: ATP viability assay, reference drugs, trypomastigotes; format: cell-based; details: Trypanosoma cruzi, 48 hours at 37° C.
# Experimental: (§1) T. cruzi epimastigotes, amastigotes, or trypomastigotes were plated at 2×10^5 cells per well in a 96 well plate. Plated epimastigotes were prepared in LIT1029 medium, while amastigotes and trypomastigotes were collected after being passaged in ARPE cells. T. cruzi cells were treated with 0 μM, 0.39 μM, 0.78 μM, 1.56 μM, 3.125 μM, 6.25 μM, 12.5 μM, 25 μM, 50 μM, or 100 μM of nifurtimox for 48 hours at 37° C. After treatment with nifurtimox, T. cruzi viability was assessed via an ATP assay. An increase in RLU indicated the presence of ATP and viable cells.
# as §1, with “benznidazole” for “nifurtimox”, “benznidazole,” for “nifurtimox,”, “RLUs” for “RLU”
# T. cruzi amastigotes = test: ATP viability assay, reference drugs, amastigotes; format: cell-based; details: Trypanosoma cruzi, 48 hours at 37° C.
# Experimental: as §1
# as §1, with “benznidazole” for “nifurtimox”, “benznidazole,” for “nifurtimox,”, “RLUs” for “RLU”
# T. cruzi epimastigotes [4] = test: ATP viability assay, reference drugs, epimastigotes; format: cell-based; details: Trypanosoma cruzi, 48 hours at 37° C.
# Experimental: as §1
# as §1, with “benznidazole” for “nifurtimox”, “benznidazole,” for “nifurtimox,”, “RLUs” for “RLU”
# L. major-infected MDMs = test: L. major-infected human MDMs, quantitative cell bioimaging; format: cell-based, Leishmania major; details: 2 μM or 20 μM
# Experimental: Human MDMs were cultured on glass slides and incubated with metacyclic L. major for 24 hours to allow for internalization of parasites. After the 24-hour L. major incubation period, extracellular parasites were removed from the culture. 24 hours after the removal of extracellular parasites, infected cells were treated with vehicle control (DMSO), 5 μM MTF, 1 μM Compound 2, 5 μM Compound 2, 10 μM Compound 2, 2 μM Compound 7, or 20 μM Compound 7. Following treatment, the cells were fixed with 2% paraformaldehyde and subsequently stained with the DNA stain Hoechst 33342. The stained cover slips were transferred onto glass slides, and quantitative cell bioimaging was utilized to determine the number of amastigotes per 500 cells using a CellInsight CX5 High Content screening platform.
# [5] = test system: T. cruzi-infected VERO cells; test: Treatment of T. cruzi-infected VERO cells, confocal microscopy; format: cell-based, Trypanosoma cruzi; details: 5 μM, 5 days
# Experimental: 2×10^4 VERO cells were plated in individual confocal dishes and allowed to adhere for 16 hours at 37° C. […] The T. cruzi-infected dishes were incubated with ˜2×10^6 T. cruzi/mL for 24 hours at 37° C. to allow for internalization of parasites. T. cruzi parasites expressed tdTomato, which allowed for visualization of parasites within cells. After the 24-hour T. cruzi incubation period, extracellular parasites were removed from culture dishes. The cells were washed 3 times with cell culture media (10% fetal bovine serum; 1% penicillin/streptomycin). Designated plates were then incubated with 5 μM Compound 2 or 5 μM Compound 7 for 5 days at 37° C. Cells were then fixed in 2% paraformaldehyde and tdTomato fluorescence in cells was assessed via confocal microscopy.
# L. major promastigotes = test: L. major promastigote viability, propidium iodide flow cytometry; format: cell-based, Leishmania major; details: 50 μM, 48 hours at 24° C.
# Experimental: 5×10^5 L. major promastigotes were treated with vehicle control (DMSO), […], 5 μM Compound 5, 50 μM Compound 2, 50 μM Compound 5, or […] for 48 hours at 24° C. Promastigote viability was then assessed via a propidium iodide flow cytometry assay. Propidium iodide is only taken up by dead cells, and the presence of fluorescence in a promastigote sample reflects compound efficacy.
structure (smiles),measurement,setting,value
"CCCCn1c(-c2ccc3ccccc3c2)c(C(C(=O)NO)c2ccccc2)c2ccccc21 (centres unmarked) [Compound 10, 2-(1-butyl-2-(naphthalen-2-yl)-1H-indol-3-yl)-N-hydroxy-2-phenylacetamide]",toxicity to T. cruzi amastigotes and trypomastigotes,[1],most toxic
same,Concentration at which T. cruzi epimastigote death is greater than or equal to ~99%,T. cruzi epimastigotes [2],25 µM
same,killing at 100 µM,T. cruzi epimastigotes [2],> 50%
"NC(=O)C(c1ccccc1)c1c(-c2ccc3ccccc3c2)[nH]c2ccccc12 (centres unmarked) [Compound 8, 2-(2-(naphthalen-2-yl)-1H-indol-3-yl)-2-phenylacetamide]",Concentration at which T. cruzi epimastigote death is greater than or equal to ~99%,T. cruzi epimastigotes [2],50 µM
same,killing at 100 µM,T. cruzi epimastigotes [2],100%
"O=C(NO)C(c1ccccc1)c1c(-c2ccccc2)[nH]c2ccccc12 (centres unmarked) [Compound 1, N-hydroxy-2-phenyl-2-(2-phenyl-1H-indol-3-yl)acetamide]",toxicity to T. cruzi amastigotes and trypomastigotes,[1],most toxic
same,Concentration at which T. cruzi epimastigote death is greater than or equal to ~99%,T. cruzi epimastigotes [2],100 µM
same,killing at 100 µM,T. cruzi epimastigotes [2],100%
same,number of intracellular parasites in ARPE culture,[3]; 10 μM once per day for 2 days,decreased the number of intracellular parasites
O=C(Cn1ccnc1[N+](=O)[O-])NCc1ccccc1 [benznidazole],MIC,T. cruzi trypomastigotes,> 100 µM
same,MIC,T. cruzi amastigotes,100 µM
same,MIC,T. cruzi epimastigotes [4],> 100 µM
same,clearance of T. cruzi infection in ARPE cells,"[3]; 2 μM, 2 days",not cleared from T. cruzi infection
"CN(C)c1ccc(C(C(=O)NO)c2c(-c3ccc4ccccc4c3)[nH]c3ccccc23)cc1 (centres unmarked) [Compound 11, 2-(4-(dimethylamino)phenyl)-N-hydroxy-2-(2-(naphthalen-2-yl)-1H-indol-3-yl)acetamide]",Concentration at which T. cruzi epimastigote death is greater than or equal to ~99%,T. cruzi epimastigotes [2],100 µM
same,killing at 100 µM,T. cruzi epimastigotes [2],100%
"O=C(NO)C(c1ccccc1)c1c(-c2cccc3ccccc23)[nH]c2c1ccc1ccccc12 (centres unmarked) [Compound 4, N-hydroxy-2-(2-(naphthalen-1-yl)-1H-benzo[g]indol-3-yl)-2-phenylacetamide]",killing at 100 µM,T. cruzi epimastigotes [2],0%
"Cc1[nH]c2ccccc2c1C(C(=O)NO)c1ccccc1 (centres unmarked) [Compound 3, N-hydroxy-2-(2-methyl-1H-indol-3-yl)-2-phenylacetamide]",killing at 100 µM,T. cruzi epimastigotes [2],0%
"Cn1c(-c2ccc3ccccc3c2)c(C(C(=O)NO)c2ccccc2)c2ccccc21 (centres unmarked) [Compound 7, N-hydroxy-2-(1-methyl-2-(naphthalen-2-yl)-1H-indol-3-yl)-2-phenylacetamide]",toxicity to T. cruzi amastigotes and trypomastigotes,[1],most toxic
same,Concentration at which T. cruzi epimastigote death is greater than or equal to ~99%,T. cruzi epimastigotes [2],≥100 µM
same,killing at 100 µM,T. cruzi epimastigotes [2],100%
same,number of parasites per cell,L. major-infected MDMs,decreased the number of parasites per cell
same,parasitic burden,"[3]; 1 μM, 3 days",decreased parasitic burden
same,protection from a recurring infection,"[3]; 1 μM, 3 days",not protected from a recurring infection
same,T. cruzi in ARPE cells (CherryTomato fluorescence),"[3]; 2 μM, two days",eradicated T. cruzi
same,T. cruzi infections in ARPE cells,"[3]; 2.5 μM, 3 days",minimal
same,T. cruzi in ARPE cells,"[3]; 5 μM, 3 days",eradicated
same,intracellular T. cruzi and re-infection,"[3]; single dose of 2 μM, 2 days",killed intracellular T. cruzi and protected the cells from re-infection
same,T. cruzi infection in VERO cells,[5],eradication of T. cruzi infection
"COc1ccc(C(C(=O)NO)c2c(-c3ccc4ccccc4c3)[nH]c3ccccc23)cc1 (centres unmarked) [Compound 6, N-hydroxy-2-(4-methoxyphenyl)-2-(2-(naphthalen-2-yl)-1H-indol-3-yl)acetamide]",killing at 100 µM,T. cruzi epimastigotes [2],0%
"CC(C)c1ccc(C(C(=O)NO)c2c(-c3ccc4ccccc4c3)[nH]c3ccccc23)cc1 (centres unmarked) [Compound 5, N-hydroxy-2-(4-isopropylphenyl)-2-(2-(naphthalen-2-yl)-1H-indol-3-yl)acetamide]",efficacy on L. major promastigote survival,L. major promastigotes,higher efficacy than MTF or the vehicle control
CC1CS(=O)(=O)CCN1/N=C/c1ccc([N+](=O)[O-])o1 (centres unmarked) [nifurtimox],MIC,T. cruzi trypomastigotes,6.25 µM
same,MIC,T. cruzi amastigotes,3.12 µM
same,MIC,T. cruzi epimastigotes [4],25 µM
"N#CC(c1ccccc1)c1c(-c2ccc3ccccc3c2)[nH]c2ccccc12 (centres unmarked) [Compound 9, 2-(2-(naphthalen-2-yl)-1H-indol-3-yl)-2-phenylacetonitrile]",Concentration at which T. cruzi epimastigote death is greater than or equal to ~99%,T. cruzi epimastigotes [2],≥100 µM
same,killing at 100 µM,T. cruzi epimastigotes [2],100%
